Patent US20240018135A1, “COMPOUND HAVING INHIBITORY ACTIVITY AGAINST O-GLUSACASE AND USE THEREOF” (MEDIFRON DBT INC., priority 2020, published 2024)

Tests used:
[1] = biological target: Human OGA (recombinant hOGA protein) (Homo sapiens (Human), UniProt O60502); assay: Human OGA enzyme activity assay (fluorescence, 4-Methylumbelliferyl N-acetyl-β-D-glucosaminide substrate); format: biochemical; settings: for IC50: Table 1; for % of inhibition: Table 1, test concentration not given
[2] = biological target: human O-GlcNAcase (Homo sapiens (Human), UniProt O60502); settings: cited from earlier work
human O-GlcNAcase, sequence (O60502 whole entry): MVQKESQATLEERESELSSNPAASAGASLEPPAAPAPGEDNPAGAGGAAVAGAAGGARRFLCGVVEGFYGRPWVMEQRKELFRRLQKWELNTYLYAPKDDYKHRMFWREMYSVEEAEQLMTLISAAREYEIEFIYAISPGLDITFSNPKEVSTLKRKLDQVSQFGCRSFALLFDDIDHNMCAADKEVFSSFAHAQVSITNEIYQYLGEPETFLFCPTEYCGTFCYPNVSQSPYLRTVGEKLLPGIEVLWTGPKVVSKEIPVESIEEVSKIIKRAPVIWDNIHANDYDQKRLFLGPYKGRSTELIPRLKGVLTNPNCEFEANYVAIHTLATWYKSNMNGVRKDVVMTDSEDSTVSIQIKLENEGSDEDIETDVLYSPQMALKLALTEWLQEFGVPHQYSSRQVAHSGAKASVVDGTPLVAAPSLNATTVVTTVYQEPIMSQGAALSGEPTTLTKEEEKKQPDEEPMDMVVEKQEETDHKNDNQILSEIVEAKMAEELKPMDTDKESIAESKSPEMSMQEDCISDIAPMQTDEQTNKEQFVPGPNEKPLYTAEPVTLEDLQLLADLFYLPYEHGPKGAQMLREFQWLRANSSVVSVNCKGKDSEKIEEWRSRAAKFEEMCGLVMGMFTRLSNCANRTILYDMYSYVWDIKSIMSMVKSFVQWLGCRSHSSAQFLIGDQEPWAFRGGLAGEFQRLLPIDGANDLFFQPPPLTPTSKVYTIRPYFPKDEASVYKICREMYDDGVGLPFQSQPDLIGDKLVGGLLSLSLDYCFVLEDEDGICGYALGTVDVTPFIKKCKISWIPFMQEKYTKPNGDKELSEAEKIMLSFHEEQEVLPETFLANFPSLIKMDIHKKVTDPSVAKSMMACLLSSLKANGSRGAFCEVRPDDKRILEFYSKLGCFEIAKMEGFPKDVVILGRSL

Human OGA (recombinant hOGA protein), sequence (O60502 whole entry): as above

SMILES	IC50 [1]	% of inhibition [1]	melting point	Ki [2]
CC(=O)Nc1ncc(CN2CCN(CC(=O)Nc3ccc(F)cc3)CC2C)s1 (stereo not shown) [Compound A-33, 2-(4-((2-acetamidothiazol-5-yl)methyl)-3-methylpiperazin-1-yl)-N-(4-fluorophenyl)acetamide]	230 nM	97.9%	102 to 105 °C	
CC(=O)Nc1ncc(CN2CCN(CC(=O)NC3CCCCC3)CC2C)s1 (stereo not shown) [Compound A-35, 2-(4-((2-acetamidothiazol-5-yl)methyl)-3-methylpiperazin-1-yl)-N-cyclohexylacetamide]	100 nM	98.4%	184 to 187 °C	
CC(=O)Nc1ncc(CN2CCN(CC(=O)Nc3ccc(N4CCN(C(C)=O)CC4)cc3)CC2)s1 [Compound A-36, 2-(4-((2-acetamidothiazol-5 yl)methyl)piperazin-1-yl)-N-(4-(4-acetylpiperazin-1-yl)phenyl)acetamide]	1040 nM	96.2%	180 to 182 °C	
CC(=O)Nc1ncc(CN2CCN(CC(=O)Nc3ccc(N4CCN(C(C)=O)CC4)cc3)CC2C)s1 (stereo not shown) [Compound A-37, 2-(4-((2-acetamidothiazol-5-yl)methyl)-3-methylpiperazin-1-yl)-N-(4-(4-acetylpiperazin-1-yl)phenyl)acetamide]	70 nM	98.4%	232 °C	
CC(=O)Nc1ncc(CN2CCN(CC(=O)Nc3ccc(Cc4ccccc4)cc3)CC2)s1 [Compound A-38, 2-(4-((2-acetamidothiazol-5-yl)methyl)piperazin-1-yl)-N-(4-benzylphenyl)acetamide]	370 nM	90.8%	132 to 134 °C	
CC(=O)Nc1ncc(CN2CCN(CC(=O)Nc3ccc(Cc4ccccc4)cc3)CC2C)s1 (stereo not shown) [Compound A-39, 2-(4-((2-acetamidothiazol-5-yl)methyl)-3-methylpiperazin-1-yl)-N-(4-benzylphenyl)acetamide]	60 nM	98.8%	193 to 195 °C	
CC(=O)Nc1ncc(CN2CCN(CC(=O)NCc3ccc(-c4ccccc4)cc3)CC2)s1 [Compound A-40, N-([1,1′-biphenyl]-4-ylmethyl)-2-(4-((2-acetamidothiazol-5-yl)methyl)piperazin-1-yl)acetamide]	210 nM	97.7%	167 to 170 °C	
CC(=O)Nc1ncc(CN2CCN(CC(=O)NCc3ccc(-c4ccccc4)cc3)CC2C)s1 (stereo not shown) [Compound A-41, N-([1,1′-biphenyl]-4-ylmethyl)-2-(4-((2-acetamidothiazol-5-yl)methyl)-3-methylpiperazin-1-yl)acetamide]	30 nM	99.6%	215 to 216 °C	
CC(=O)Nc1ncc(CN2CCC(C(=O)Nc3ccccc3)CC2)s1 [Compound B-1, 1-((2-acetamidothiazol-5-yl)methyl)N-phenylpiperidine-4-carboxamide]	870 nM	87.0%	172 to 174 °C	
CC(=O)Nc1ncc(CN2CCC(C(=O)Nc3ccc(Cl)cc3)CC2)s1 [Compound B-2, 1-((2-acetamidothiazol-5-yl)methyl)-N-(4-chlorophenyl)piperidine-4-carboxamide]	270 nM	91.0%	258 to 260 °C	
CC(=O)Nc1ncc(CN2CCC(C(=O)Nc3ccc(C(C)C)cc3)CC2)s1 [Compound B-3, 1-((2-acetamidothiazol-5-yl)methyl)-N-(4-isopropylphenyl)piperidine-4-carboxamide]	680 nM	91.8%	257 to 258 °C	
CC(=O)Nc1ncc(CN2CCC(C(=O)Nc3cnccn3)CC2)s1 [Compound B-4, 1-((2-acetamidothiazol-5-yl)methyl)-N-(pyrazin-2-yl)piperidine-4-carboxamide]		66.9%	178 to 180 °C	
CC(=O)Nc1ncc(CN2CCC(C(=O)NC3CCCCC3)CC2)s1 [Compound B-5, 1-((2-acetamidothiazol-5-yl)methyl)-N-cyclohexylpiperidine-4-carboxamide]		46.7%	231 to 232 °C	
CC(=O)Nc1ncc(CN2CCC(C(=O)Nc3ccc4ncccc4c3)CC2)s1 [Compound B-6, 1-((2-acetamidothiazol-5 yl)methyl)-N-(quinolin-6-yl)piperidine-4-carboxamide]	320 nM	91.4%	234 to 236 °C	
CC(=O)Nc1ncc(CN2CCC(C(=O)NCc3ccccc3)CC2)s1 [Compound B-7, 1-((2-acetamidothiazol-5-yl)methyl)-N-benzylpiperidine-4-carboxamide]	1000 nM	88.2%	176 to 178 °C	
COc1ccc(CNC(=O)C2CCN(Cc3cnc(NC(C)=O)s3)CC2)cc1 [Compound B-8, 1-((2-acetamidothiazol-5-yl)methyl)-N-(4-methoxybenzyl)piperidine-4-carboxamide]	860 nM	93.9%	215 to 217 °C	
CC(=O)Nc1ncc(CN2CCC(C(=O)NC(C)c3ccc4c(c3)OCO4)CC2)s1 (stereo not shown) [Compound B-9, 1-((2-acetamidothiazol-5-yl)methyl)-N-(1-(benzo[d][1,3]dioxol-5-yl)ethyl)piperidine-4-carboxamide]	1010 nM	93.1%	211 to 213 °C	
CC(=O)Nc1ncc(CN2CCC(C(=O)NC(C)c3ccccc3)CC2)s1 (stereo not shown) [Compound B-10, 1-((2-acetamidothiazol-5-yl)methyl)-N-(1-phenylethyl)piperidine-4-carboxamide]	900 nM	93.3%	178 to 179 °C	
CC(=O)Nc1ncc(CN2CCC(C(=O)OC(C)c3ccc4c(c3)OCO4)CC2)s1 (stereo not shown) [Compound B-13, 1-(benzo[d][1,3]dioxol-5 yl)ethyl 1-((2-acetamidothiazol-5-yl)methyl)piperidine-4-carboxylate]	60 nM	98.9%	215 to 217 °C	
CC(=O)Nc1ncc(CN2CCCC(C(=O)Nc3ccccc3)C2)s1 (stereo not shown) [Compound B-16, 1-((2-acetamidothiazol-5-yl)methyl)-N-phenylpiperidine-3-carboxamide]	230 nM	95.5%	257 to 259 °C	
CC(=O)Nc1ncc(CN2CCCC(C(=O)Nc3ccc(F)cc3)C2)s1 (stereo not shown) [Compound B-17, 1-((2-acetamidothiazol-5-yl)methyl)-N-(4-fluorophenyl)piperidine-3-carboxamide]	340 nM	96.7%	127 to 129 °C	
CC(=O)Nc1ncc(CN2CCCC(C(=O)Nc3ccc(C(C)C)cc3)C2)s1 (stereo not shown) [Compound B-18, 1-((2-acetamidothiazol-5-yl)methyl)-N-(4-isopropylphenyl)piperidine-3-carboxamide]	240 nM	96.4%	234 to 236 °C	
CC(=O)Nc1ncc(CN2CCCC(C(=O)NC3CCCCC3)C2)s1 (stereo not shown) [Compound B-19, 1-((2-acetamidothiazol-5 yl)methyl)-N-cyclohexylpiperidine-3-carboxamide]	450 nM	97.6%	265 to 267 °C	
CC(=O)Nc1ncc(CN2CCC(=CC(=O)Nc3ccccc3)CC2)s1 [Compound C-1, 2-(1-((2-acetamidothiazol-5-yl)methyl)piperidin-4-ylidene)-N-phenylacetamide]	310 nM	96.2%	184 to 185 °C	
CC(=O)N[C@H]1c2nc(CC(=O)O)cn2[C@H](CO)[C@@H](O)[C@@H]1O [gluco-nagstatin]				420 nM

The next lines start with results.

IC50 [1]	% of inhibition [1]	melting point	SMILES	Ki [2]
170 nM	97.1%	189 to 191 °C	CC(=O)Nc1ncc(CN2CCC(=CC(=O)Nc3ccc(F)cc3)CC2)s1 [Compound C-2, 2-(1-((2-acetamidothiazol-5-yl)methyl)piperidin-4-ylidene)-N-(4-fluorophenyl)acetamide]	
140 nM	97.3%	225 to 228 °C	CC(=O)Nc1ncc(CN2CCC(=CC(=O)Nc3ccc(Cl)cc3)CC2)s1 [Compound C-3, 2-(1-((2-acetamidothiazol-5-yl)methyl)piperidin-4-ylidene)-N-(4-chlorophenyl)acetamide]	
230 nM	97.0%	232 to 236 °C	CC(=O)Nc1ncc(CN2CCC(=CC(=O)Nc3ccc(C(C)C)cc3)CC2)s1 [Compound C-4, 2-(1-((2-acetamidothiazol-5-yl)methyl)piperidin-4-ylidene)-N-(4-isopropylphenyl)acetamide]	
450 nM	94.8%	212 to 214 °C	COc1ccc(NC(=O)C=C2CCN(Cc3cnc(NC(C)=O)s3)CC2)cc1 [Compound C-5, 2-(1-((2-acetamidothiazol-5-yl)methyl)piperidin-4 ylidene)-N-(4-methoxyphenyl)acetamide]	
350 nM	95.8%	214 to 219 °C	COc1ccc(NC(=O)C=C2CCN(Cc3cnc(NC(C)=O)s3)CC2)cc1OC [Compound C-6, 2-(1-((2-acetamidothiazol-5-yl)methyl)piperidin-4-ylidene)-N-(3,4-dimethoxyphenyl)acetamide]	
80 nM	98.2%	222 to 224 °C	COc1ccc(CNC(=O)C=C2CCN(Cc3cnc(NC(C)=O)s3)CC2)cc1 [Compound C-7, 2-(1-((2-acetamidothiazol-5-yl)methyl)piperidin-4-ylidene)-N-(4-methoxybenzyl)acetamide]	
	97.7%	222 to 224 °C	CC(=O)Nc1ncc(CN2CCC(=CC(=O)NC3CCCCC3)CC2)s1 [Compound C-8, 2-(1-((2-acetamidothiazol-5-yl)methyl)piperidin-4-ylidene)-N-cyclohexylacetamide]	
